# According to patent US11420910B2, “Methods for low temperature fluorine-18 radiolabeling of biomolecules” (KATHOLIEKE UNIVERSITEIT LEUVEN, priority 2014, dated 2022):
# “Also recorded” adds a separate entry of the source.
# Assays:
# [1] = Stability tests of Al18F-complexes in PBS (0.1 M, pH 7) at 37° C., Example 26; assay type: physicochemical; conditions: PBS 0.1 M pH 7, 37° C.
# Method: (§1) 400 μl of each purified [Al^18F]-complex solution was added to 1 mL of PBS and/or 1 mL of rat serum. […] Finally the supernatant was analysed using iTLC-SG.
# [2] = Stability test on the semi-automated [Al18F]-L3 batch at room temperature; assay type: physicochemical; conditions: incubation at room temperature for 2 hours
# Method: To assess the efficiency of the labeling agent in a more realistic setting, the process for radiosynthesis and purification of [Al^18F]-L3 was performed semi-automatically. [^18F]fluoride was produced and trapped on a SepPak™ Light Accel plus QMA anion as described previously. The [^18F]F^− was eluted from the cartridge with an aqueous solution of sodium chloride 0.9% (0.2 mL) and added to 22.5 μl of 20 mM aluminum chloride (AlCl3) in sodium acetate buffer (0.1 M, pH 4). The solution was incubated at RT for 10 min to form {Al^18F}^2+. A solution of H3L3 (0.5 mL, 1.5 mM) was added and the reactor was heated at 40° C. for 12 min. After dilution with water (0.5 mL), the crude reaction mixture was injected onto a semi-preparative HPLC column (XBridge C18, 5 μm, 4.6 mm×150 mm, Waters) eluted with EtOH: sodium acetate 0.05M pH 5.5, 8:92 (v/v) at a flow rate of 1 mL/min. UV detection of the eluate was performed at 254 nm. Identification of the [Al^18F]-L3 complex was done by radio-LC-HRMS (Acquity UPLC BEH C18, 1.7 μm, 2.1 mm×150 mm, Waters. 0.6 mL/min A: H2O B: ACN, 0-2 min 5% B, 2 to 8 min 5% B to 95% B, 8-10 min 95% B, 10 to 12 min 95% B to 5% B).
# H3L3 was labeled with {Al^18F}^2+ in a non-optimized yield of 74% (12 min 40° C., pH 4). The batch (4.63 GBq) was produced with a RCP higher than 98% in 35 min starting after elution of fluorine-18. […]
# [3] = Stability tests of Al18F-complexes in rat serum at 37° C., Example 26; assay type: in vitro ADME
# Method: as §1
# [4] = Stability tests of Al18F-complexes in different buffers ranging from pH 2 to 8 (room temperature, iTLC-SG); assay type: physicochemical; conditions: for RCP: after 60 min
# Method: (§2) 200 μl of the purified Al^18F-L3 solution was added to 1 mL of sodium phosphate buffer (0.1 M, pH 2), sodium phosphate buffer (0.1 M, pH 3), sodium acetate buffer (0.1 M, pH 4), sodium acetate buffer (0.1 M, pH 5), sodium acetate buffer (0.1 M, pH 6), PBS buffer (0.1 M, pH 7) or Tris-HCl buffer (0.1 M, pH 8). These mixtures were incubated at room temperature and analyzed by iTLC-SG at 30 and 60 min after the start of the incubation.
# as §2, with “Al^18F-L26” for “Al^18F-L3”
# [5] = Biodistribution of Al18F-complexes and {Al18F}2+ in healthy male NMRI mice; assay type: in vivo; conditions: for uptake in blood / uptake in bone / uptake in intestines / uptake in kidneys / uptake in liver / uptake in urinary bladder: NMRI mice, tail vein
# Method: (§3) Quantification of radioactivity during biodistribution studies was performed using an automated gamma counter equipped with a 3-inch NaI(TI) well crystal coupled to a multichannel analyzer, mounted in a sample changer (Perkin Elmer 1480 Wizard 3q). Counts were corrected for background radiation, physical decay and counter dead time.
# (§4) The biodistribution of the [Al^18F]-L3 complex and {Al^18F}^2+ was determined in healthy male Naval Medical Research Institute (NMRI) mice (body weight: 30-40 g) at 10 and 60 min post injection (p.i.) (n=4/time point). Mice were injected with the [Al^18F]-L3 complex (about 1 MBq) or {Al^18F}^2+ (5.55 MBq) via a tail vein under anesthesia (2.5% isoflurane in O2 at 1 L/min flow rate) and sacrificed by decapitation at above specified time points. Blood and major organs were collected in tared tubes and weighed. The radioactivity in blood, organs and other body parts was counted using an automated γ-counter. For the calculation of total radioactivity in blood, bone and muscle, masses were assumed to be, respectively, 7, 12 and 40% of the total body mass.^20, 21
# as §3, with “Nai(TI)” for “NaI(TI)”
# as §4, with “[Al^18F]-L26” for “[Al^18F]-L3”, “(n=3/time point for 10 min p.i. and n=4/time point for 60 min p.i.).” for “(n=4/time point).”, “mass.^20,21” for “mass.^20, 21”
compound,measurement,setting,value
O=C1CN(Cc2ccccc2)CCN2CC(=O)[O][Al-]([18F])([O]1)[O]c1ccccc1C2 (stereo not drawn) [Al^18F-L3],stability in PBS (in words),[1],comparable to that of Al^18F-NODA-benzyl up to 60 minutes; also recorded: stability comparable to that of the previously reported Al^18F-NODA
same,RCP,[1]; 120 min,80%
same,RCP,[1]; 240 min,70%
same,[Al18F]-L3 still intact,[2],more than 95%
same,stability in rat serum (in words),[3],good stability in rat serum; also recorded: stability comparable to that of the previously reported Al^18F-NODA
same,RCP,[3]; 240 min,66%
same,stability at different pH (in words),"[4]; buffers pH 2 to 8, room temperature, 30 and 60 min","not stable at pH 2, pH 3 and pH 4; also recorded: stable for at least 60 min in the pH range from 5 to 8"
same,RCP,"[4]; sodium acetate buffer 0.1 M pH 4, room temperature",75%
same,RCP,"[4]; sodium phosphate buffer 0.1 M pH 2, room temperature",58%
same,RCP,"[4]; sodium phosphate buffer 0.1 M pH 3, room temperature",68%
same,uptake in blood,[5]; 10 min p.i.,1.1 % ID
same,uptake in bone,[5]; 10 min p.i.,1.6 % ID
same,uptake in intestines,[5]; 10 min p.i.,25.17 % ID
same,uptake in kidneys,[5]; 10 min p.i.,2.2 % ID
same,uptake in liver,[5]; 10 min p.i.,47.83 % ID
same,uptake in urinary bladder,[5]; 10 min p.i.,13.2 % ID
same,uptake in blood,[5]; 60 min p.i.,0.3 % ID
same,uptake in bone,[5]; 60 min p.i.,2.5 % ID
same,uptake in intestines,[5]; 60 min p.i.,59.48 % ID
same,uptake in kidneys,[5]; 60 min p.i.,1.0 % ID
same,uptake in liver,[5]; 60 min p.i.,13.53 % ID
same,uptake in urinary bladder,[5]; 60 min p.i.,17.8 % ID
same,route of clearance (in words),"[5]; mice, 60 min p.i.",hepatobiliary clearance
same,in vivo stability judged from bone uptake (in words),"[5]; mice, biodistribution",high stability
